Like-named read-outs stand apart in the source and are kept apart here.
Tests used:
[1] = target: EGFR (Homo sapiens, UniProt P00533); assay: ADP-Glo kinase assay, EGFR; assay type: biochemical; design: purchased BPS Bioscience (assay run externally by the vendor)
[2] = target: T1, aurora A kinase (AURKA) (Homo sapiens, UniProt O14965); assay: ADP-Glo kinase assay, Aurora A; assay type: biochemical
T1 construct: purchased BPS Bioscience (assay run externally by the vendor)
T1 sequence (O14965 1-403): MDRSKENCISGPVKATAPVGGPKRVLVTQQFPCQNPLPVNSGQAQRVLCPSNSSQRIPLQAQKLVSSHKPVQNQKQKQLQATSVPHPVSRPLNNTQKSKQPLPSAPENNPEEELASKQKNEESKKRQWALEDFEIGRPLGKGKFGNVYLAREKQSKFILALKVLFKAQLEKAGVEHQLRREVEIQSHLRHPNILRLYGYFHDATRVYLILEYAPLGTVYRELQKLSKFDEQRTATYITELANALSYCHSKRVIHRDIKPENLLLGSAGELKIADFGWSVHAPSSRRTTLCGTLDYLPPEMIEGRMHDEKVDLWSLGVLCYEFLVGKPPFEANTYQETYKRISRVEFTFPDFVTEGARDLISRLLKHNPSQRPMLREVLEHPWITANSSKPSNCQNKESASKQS

[3] = 10 µM ATP/0.2 mg/ml Poly-Glu-Tyr, read-out: EGFR IC50 (dose-response curve, supplement)
[4] = 10 µM ATP, triplicate, read-out: AURKA IC50 ± SD
[5] = 10 µM ATP/0.2 mg/ml Kemptide, read-out: Aurora A IC50 (dose-response curve, supplement)

Chain of EGFR (P00533 25-1210): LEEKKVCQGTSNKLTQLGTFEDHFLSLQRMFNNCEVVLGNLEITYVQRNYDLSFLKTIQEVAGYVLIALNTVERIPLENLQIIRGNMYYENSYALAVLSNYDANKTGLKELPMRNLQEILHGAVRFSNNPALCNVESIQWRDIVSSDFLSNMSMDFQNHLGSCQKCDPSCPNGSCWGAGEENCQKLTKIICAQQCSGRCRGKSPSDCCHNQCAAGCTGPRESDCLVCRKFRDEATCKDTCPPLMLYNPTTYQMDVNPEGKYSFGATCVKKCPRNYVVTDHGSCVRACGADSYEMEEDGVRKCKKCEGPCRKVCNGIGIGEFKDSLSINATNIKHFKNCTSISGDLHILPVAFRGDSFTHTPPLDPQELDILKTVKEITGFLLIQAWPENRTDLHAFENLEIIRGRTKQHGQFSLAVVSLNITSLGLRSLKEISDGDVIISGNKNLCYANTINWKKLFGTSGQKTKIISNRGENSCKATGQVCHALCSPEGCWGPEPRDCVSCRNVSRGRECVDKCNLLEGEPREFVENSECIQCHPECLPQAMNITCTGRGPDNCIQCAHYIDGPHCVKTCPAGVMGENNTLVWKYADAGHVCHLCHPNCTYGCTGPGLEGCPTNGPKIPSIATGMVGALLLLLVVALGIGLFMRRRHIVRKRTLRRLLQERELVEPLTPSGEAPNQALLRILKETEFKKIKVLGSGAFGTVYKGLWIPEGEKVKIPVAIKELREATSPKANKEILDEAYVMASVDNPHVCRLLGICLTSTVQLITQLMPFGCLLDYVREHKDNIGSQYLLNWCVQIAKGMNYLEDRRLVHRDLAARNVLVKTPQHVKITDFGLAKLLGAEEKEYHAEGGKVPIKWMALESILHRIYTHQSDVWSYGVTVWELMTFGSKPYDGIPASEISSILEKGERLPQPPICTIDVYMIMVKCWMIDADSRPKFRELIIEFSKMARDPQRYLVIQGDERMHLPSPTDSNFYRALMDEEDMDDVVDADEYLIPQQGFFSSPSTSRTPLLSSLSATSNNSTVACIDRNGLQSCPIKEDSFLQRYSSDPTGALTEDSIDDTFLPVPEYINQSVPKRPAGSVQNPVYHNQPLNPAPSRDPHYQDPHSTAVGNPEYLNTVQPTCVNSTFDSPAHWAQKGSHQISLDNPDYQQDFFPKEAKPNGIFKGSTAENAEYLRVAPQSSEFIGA

SMILES: FC(F)(F)c1cccc(Nc2ncnc3[nH]ccc23)c1 [Compound 13, N^4-(3-trifluoromethylphenyl)-7H-pyrrolo[2,3-d]pyrimidin-4-amine]
- IC50 ([1]; 10 µM ATP, triplicate, cell without unit, read-out: EGFR IC50 ± SD): 43.6 ± 7.77 nM
- IC50 [1, 3]: 43.9 nM
- EGFR % Activity Set1 ([1]; Log[nM] 0): 91%
- EGFR % Activity Set2 ([1]; Log[nM] 0): 92%
- EGFR % Activity Set3 ([1]; Log[nM] 0): 91%
- EGFR % Activity Set1 ([1]; Log[nM] 1.0): 66%
- EGFR % Activity Set2 ([1]; Log[nM] 1.0): 76%
- EGFR % Activity Set3 ([1]; Log[nM] 1.0): 95%
- EGFR % Activity Set1 ([1]; Log[nM] 1.5): 54%
- EGFR % Activity Set2 ([1]; Log[nM] 1.5): 61%
- EGFR % Activity Set3 ([1]; Log[nM] 1.5): 56%
- EGFR % Activity Set1 ([1]; Log[nM] 2.0): 29%
- EGFR % Activity Set2 ([1]; Log[nM] 2.0): 30%
- EGFR % Activity Set3 ([1]; Log[nM] 2.0): 32%
- EGFR % Activity Set1 ([1]; Log[nM] 2.5): 17%
- EGFR % Activity Set2 ([1]; Log[nM] 2.5): 19%
- EGFR % Activity Set3 ([1]; Log[nM] 2.5): 15%
- EGFR % Activity Set1 ([1]; Log[nM] 3.0): 8%
- EGFR % Activity Set2 ([1]; Log[nM] 3.0): 8%
- EGFR % Activity Set3 ([1]; Log[nM] 3.0): 6%
- EGFR % Activity Set1 ([1]; Log[nM] 3.5): 3%
- EGFR % Activity Set2 ([1]; Log[nM] 3.5): 4%
- EGFR % Activity Set3 ([1]; Log[nM] 3.5): 3%
- EGFR % Activity Set1 ([1]; Log[nM] 4.0): 0%
- EGFR % Activity Set2 ([1]; Log[nM] 4.0): 1%
- EGFR % Activity Set3 ([1]; Log[nM] 4.0): 1%
- EGFR % Activity Set1 ([1]; Log[nM] 4.5): 0%
- EGFR % Activity Set2 ([1]; Log[nM] 4.5): 1%
- EGFR % Activity Set3 ([1]; Log[nM] 4.5): 0%
- EGFR % Activity Set1 ([1]; Log[nM] 5.0): 0%
- EGFR % Activity Set2 ([1]; Log[nM] 5.0): 0%
- EGFR % Activity Set3 ([1]; Log[nM] 5.0): 1%
- IC50 [2, 4]: 5.78 ± 0.43 µM
- IC50 [2, 5]: 5.8 µM
- Aurora A % Activity Set1 ([2]; Log[nM] 0): 94%
- Aurora A % Activity Set2 ([2]; Log[nM] 0): 101%
- Aurora A % Activity Set3 ([2]; Log[nM] 0): 96%
- Aurora A % Activity Set1 ([2]; Log[nM] 1.0): 103%
- Aurora A % Activity Set2 ([2]; Log[nM] 1.0): 101%
- Aurora A % Activity Set3 ([2]; Log[nM] 1.0): 106%
- Aurora A % Activity Set1 ([2]; Log[nM] 1.5): 107%
- Aurora A % Activity Set2 ([2]; Log[nM] 1.5): 113%
- Aurora A % Activity Set3 ([2]; Log[nM] 1.5): 119%
- Aurora A % Activity Set1 ([2]; Log[nM] 2.0): 110%
- Aurora A % Activity Set2 ([2]; Log[nM] 2.0): 108%
- Aurora A % Activity Set3 ([2]; Log[nM] 2.0): 113%
- Aurora A % Activity Set1 ([2]; Log[nM] 2.5): 108%
- Aurora A % Activity Set2 ([2]; Log[nM] 2.5): 108%
- Aurora A % Activity Set3 ([2]; Log[nM] 2.5): 112%
- Aurora A % Activity Set1 ([2]; Log[nM] 3.0): 94%
- Aurora A % Activity Set2 ([2]; Log[nM] 3.0): 100%
- Aurora A % Activity Set3 ([2]; Log[nM] 3.0): 94%
- Aurora A % Activity Set1 ([2]; Log[nM] 3.5): 73%
- Aurora A % Activity Set2 ([2]; Log[nM] 3.5): 63%
- Aurora A % Activity Set3 ([2]; Log[nM] 3.5): 72%
- Aurora A % Activity Set1 ([2]; Log[nM] 4.0): 32%
- Aurora A % Activity Set2 ([2]; Log[nM] 4.0): 26%
- Aurora A % Activity Set3 ([2]; Log[nM] 4.0): 28%
- Aurora A % Activity Set1 ([2]; Log[nM] 4.5): 13%
- Aurora A % Activity Set2 ([2]; Log[nM] 4.5): 10%
- Aurora A % Activity Set3 ([2]; Log[nM] 4.5): 11%
- Aurora A % Activity Set1 ([2]; Log[nM] 5.0): 14%
- Aurora A % Activity Set2 ([2]; Log[nM] 5.0): 11%
- Aurora A % Activity Set3 ([2]; Log[nM] 5.0): 13%

SMILES: Brc1ccc(Nc2ncnc3[nH]ccc23)cc1 [Compound 10, N^4-(4-bromophenyl)-7H-pyrrolo[2,3-d]pyrimidin-4-amine]
- IC50 ([1]; 10 µM ATP, triplicate, read-out: EGFR IC50 ± SD): 125 ± 16.4 nM
- IC50 [1, 3]: 125 nM
- EGFR % Activity Set1 ([1]; Log[nM] 0): 90%
- EGFR % Activity Set2 ([1]; Log[nM] 0): 96%
- EGFR % Activity Set3 ([1]; Log[nM] 0): 103%
- EGFR % Activity Set1 ([1]; Log[nM] 1.0): 97%
- EGFR % Activity Set2 ([1]; Log[nM] 1.0): 90%
- EGFR % Activity Set3 ([1]; Log[nM] 1.0): 97%
- EGFR % Activity Set1 ([1]; Log[nM] 1.5): 78%
- EGFR % Activity Set2 ([1]; Log[nM] 1.5): 82%
- EGFR % Activity Set3 ([1]; Log[nM] 1.5): 80%
- EGFR % Activity Set1 ([1]; Log[nM] 2.0): 53%
- EGFR % Activity Set2 ([1]; Log[nM] 2.0): 56%
- EGFR % Activity Set3 ([1]; Log[nM] 2.0): 51%
- EGFR % Activity Set1 ([1]; Log[nM] 2.5): 30%
- EGFR % Activity Set2 ([1]; Log[nM] 2.5): 29%
- EGFR % Activity Set3 ([1]; Log[nM] 2.5): 28%
- EGFR % Activity Set1 ([1]; Log[nM] 3.0): 14%
- EGFR % Activity Set2 ([1]; Log[nM] 3.0): 12%
- EGFR % Activity Set3 ([1]; Log[nM] 3.0): 12%
- EGFR % Activity Set1 ([1]; Log[nM] 3.5): 6%
- EGFR % Activity Set2 ([1]; Log[nM] 3.5): 5%
- EGFR % Activity Set3 ([1]; Log[nM] 3.5): 5%
- EGFR % Activity Set1 ([1]; Log[nM] 4.0): 2%
- EGFR % Activity Set2 ([1]; Log[nM] 4.0): 2%
- EGFR % Activity Set3 ([1]; Log[nM] 4.0): 2%
- EGFR % Activity Set1 ([1]; Log[nM] 4.5): 1%
- EGFR % Activity Set2 ([1]; Log[nM] 4.5): 1%
- EGFR % Activity Set3 ([1]; Log[nM] 4.5): 1%
- EGFR % Activity Set1 ([1]; Log[nM] 5.0): 1%
- EGFR % Activity Set2 ([1]; Log[nM] 5.0): 1%
- EGFR % Activity Set3 ([1]; Log[nM] 5.0): 1%
- IC50 [2, 4]: 3.73 ± 0.12 µM
- IC50 [2, 5]: 3.7 µM
- Aurora A % Activity Set1 ([2]; Log[nM] 0): 98%
- Aurora A % Activity Set2 ([2]; Log[nM] 0): 87%
- Aurora A % Activity Set3 ([2]; Log[nM] 0): 96%
- Aurora A % Activity Set1 ([2]; Log[nM] 1.0): 97%
- Aurora A % Activity Set2 ([2]; Log[nM] 1.0): 94%
- Aurora A % Activity Set3 ([2]; Log[nM] 1.0): 94%
- Aurora A % Activity Set1 ([2]; Log[nM] 1.5): 100%
- Aurora A % Activity Set2 ([2]; Log[nM] 1.5): 95%
- Aurora A % Activity Set3 ([2]; Log[nM] 1.5): 95%
- Aurora A % Activity Set1 ([2]; Log[nM] 2.0): 102%
- Aurora A % Activity Set2 ([2]; Log[nM] 2.0): 97%
- Aurora A % Activity Set3 ([2]; Log[nM] 2.0): 101%
- Aurora A % Activity Set1 ([2]; Log[nM] 2.5): 100%
- Aurora A % Activity Set2 ([2]; Log[nM] 2.5): 93%
- Aurora A % Activity Set3 ([2]; Log[nM] 2.5): 98%
- Aurora A % Activity Set1 ([2]; Log[nM] 3.0): 82%
- Aurora A % Activity Set2 ([2]; Log[nM] 3.0): 83%
- Aurora A % Activity Set3 ([2]; Log[nM] 3.0): 82%
- Aurora A % Activity Set1 ([2]; Log[nM] 3.5): 60%
- Aurora A % Activity Set2 ([2]; Log[nM] 3.5): 55%
- Aurora A % Activity Set3 ([2]; Log[nM] 3.5): 53%
- Aurora A % Activity Set1 ([2]; Log[nM] 4.0): 20%
- Aurora A % Activity Set2 ([2]; Log[nM] 4.0): 19%
- Aurora A % Activity Set3 ([2]; Log[nM] 4.0): 20%
- Aurora A % Activity Set1 ([2]; Log[nM] 4.5): 9%
- Aurora A % Activity Set2 ([2]; Log[nM] 4.5): 9%
- Aurora A % Activity Set3 ([2]; Log[nM] 4.5): 9%
- Aurora A % Activity Set1 ([2]; Log[nM] 5.0): 10%
- Aurora A % Activity Set2 ([2]; Log[nM] 5.0): 10%
- Aurora A % Activity Set3 ([2]; Log[nM] 5.0): 9%

— paper PMC6009956, “Design, synthesis and biological activity of N^4-phenylsubstituted-7H-pyrrolo[2,3-d]pyrimidin-4-amines as dual inhibitors of aurora kinase A and epidermal growth factor receptor kinase” (Journal of Enzyme Inhibition and Medicinal Chemistry, 2017)
